Measurements taken from article PMC8329300, “X-ray crystallography reveals molecular recognition mechanism for sugar binding in a melibiose transporter MelB” (Communications Biology, 2021).
Like-named read-outs stand apart in the source and are kept apart here.

What was measured:
D59C MelBSt = target: T1, D59C MelBSt (Salmonella typhimurium, UniProt P30878, D59C); assay: biochemical; type: binding
T1 construct: Cys scanning mutagenesis for the full-length MelBSt; His10 (C); made in house; host or cells: E. coli DW2
T1 sequence (P30878 whole entry D59C): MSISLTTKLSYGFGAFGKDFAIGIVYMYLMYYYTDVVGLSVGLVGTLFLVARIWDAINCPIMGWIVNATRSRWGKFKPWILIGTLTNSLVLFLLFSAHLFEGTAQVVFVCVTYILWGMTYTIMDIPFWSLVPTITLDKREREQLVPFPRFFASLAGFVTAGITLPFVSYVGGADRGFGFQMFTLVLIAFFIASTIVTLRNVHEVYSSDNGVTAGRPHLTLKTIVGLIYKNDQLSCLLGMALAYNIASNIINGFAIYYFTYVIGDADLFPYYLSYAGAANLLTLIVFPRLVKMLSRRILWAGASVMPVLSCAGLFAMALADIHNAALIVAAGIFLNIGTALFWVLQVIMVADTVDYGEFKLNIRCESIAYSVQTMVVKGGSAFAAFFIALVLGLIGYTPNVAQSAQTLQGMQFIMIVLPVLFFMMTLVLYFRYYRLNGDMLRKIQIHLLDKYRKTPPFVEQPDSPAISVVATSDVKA
Procedure: All ITC ligand-binding assays were performed with the TA Instruments (Nano-ITC device) at 25 °C. In a typical experiment, the titrand (MelBSt) in the ITC sample cell was titrated with the specified titrant (placed in the Syringe) by an incremental injection of 2-µL aliquots at an interval of 300 s at a constant stirring rate of 250 r.p.m. All samples were degassed using a TA Instruments Degassing Station (model 6326) for 15 min prior to the titration. Data processing was performed with the NanoAnalyze (version 3.6.0 software) provided with the ITC equipment. The normalized heat changes were subtracted from the heat of dilution elicited by last few injections, where no further binding occurred; the corrected heat changes were plotted against the molar ratio of titrant versus titrand. The values for association constant (Ka) value were determined by fitting the data with a one-site independent-binding model. At most cases, the binding stoichiometry (N) number was fixed to 1 since it is a known parameter, which can restrain the data fitting and achieve more accurate results. The dissociation constant Kd = 1/Ka.
Supplementary Figure 1. ITC measurements. ITC measurements were performed at 25 °C as described in Methods. (a) Binding thermography. For all tests, ligands and proteins are buffer- […]
(1 picture or pasted object on this page, not shown here) […]
matched. For melibiose binding measurements, a solution of 80 mM or 10 mM in the absence or presence of NaCl at 100 mM, was injected into the ITC sample cell containing the WT MelBSt at 80 μM without or with 100 mM NaCl, respectively. With the D59C mutant, […] was used. For α-NPG binding measurements, 0.5 mM or 0.4 mM solution was used to titrate the WT or D59C mutant at 50 μM in the absence or presence or 100 mM NaCl, respectively. For the Na+ or Li+ binding measurements, 5 mM or 2 mM solution was used to titrate WT MelBSt at 80 μM without or with 50 mM melibiose, respectively; 40 mM solutions was used to titrate the D59C mutant. (b) binding isotherm. Curve fit was carried out with a one-site independent-binding model included in the NanoAnalyze software (version 3.6.0).

D59A MelBSt = target: T2, D59A MelBSt (Salmonella typhimurium, UniProt P30878, D59A); assay: Trp→dansyl galactoside (D2G) FRET time trace (D59A); type: binding; conditions: no Na+ or Li+ stimulation
T2 construct: Cys scanning mutagenesis for the full-length MelBSt; His10 (C); made in house; host or cells: E. coli DW2
T2 sequence (P30878 whole entry D59A): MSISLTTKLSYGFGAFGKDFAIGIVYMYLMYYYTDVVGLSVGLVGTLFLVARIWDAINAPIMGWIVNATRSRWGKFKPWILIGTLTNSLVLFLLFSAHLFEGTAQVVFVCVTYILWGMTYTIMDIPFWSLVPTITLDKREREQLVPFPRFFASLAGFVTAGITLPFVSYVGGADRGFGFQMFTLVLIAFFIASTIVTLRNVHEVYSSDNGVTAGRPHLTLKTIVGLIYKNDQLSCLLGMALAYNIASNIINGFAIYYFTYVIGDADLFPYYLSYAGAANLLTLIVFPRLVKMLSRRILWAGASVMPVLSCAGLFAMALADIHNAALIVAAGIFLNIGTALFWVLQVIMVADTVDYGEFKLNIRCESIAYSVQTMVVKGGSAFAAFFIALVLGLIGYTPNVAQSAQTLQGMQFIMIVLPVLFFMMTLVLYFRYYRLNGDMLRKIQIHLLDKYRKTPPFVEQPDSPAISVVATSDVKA
Procedure: Fig. 1 Functional characterizations. a [^3H] Melibiose transport time course with intact cells. E. coli DW2 strain (melB^−, lacZ^−Y^−) expressed with the WT, D59C, or D59A MelBSt mutants were subjected to [^3H]melibiose active transport assay at 0.4 mM and 10 mCi/mmol in the presence of 20 mM or 100 mM NaCl or LiCl by a fast filtration method. Inset, melibiose fermentation assay. Transformants with DW2 strain were plated on MacConkey agar plates containing 30 mM melibiose as the sole carbohydrate source and pH sensor neutral red, and incubated at 37 °C for 16–18 h before imaging. Number of tests = 3, from different batch of cells or duplicate measurements from same batch of sample. b Ligand binding by Trp→dansyl galactoside (D^2G) FRET assay. Purified proteins at 1 μM concentration in 20 mM Tris-HCl, pH 7.5, 100 mM CholCl, 10% glycerol, and 0.03% UDM were subjected to steady-state fluorescence measurements as described in Methods. […]
Steady-state fluorescence measurements were performed with an AMINCO-Bowman series 2 spectrometer with purified MelBSt at 1 μM in 20 mM Tris-HCl, pH 7.5, 100 mM CholCl, 10% glycerol, 0.03% UDM. Using an excitation wavelength at 290 nm, the emission intensity was recorded at 490 nm. […]

| Structure (SMILES) | Kd (D59C MelBSt; Apo, ITC 25 °C, read-out: Kd of substrate binding, Melibiose) [mM] | Kd (D59C MelBSt; Na+ (100 mM), ITC 25 °C, read-out: Kd of substrate binding, Melibiose) [mM] | Kd lower than that of WT (D59C MelBSt; apo state, melibiose binding) [fold] | Kd (D59C MelBSt; read-out: Kd value for melibiose binding) [mM] | Kd (D59C MelBSt; Kd of substrate binding, α-NPG, Apo, ITC 25 °C) [mM] | Kd (D59C MelBSt; Kd of substrate binding, α-NPG, Na+ (100 mM), ITC 25 °C) [mM] | increased affinity versus WT (D59C MelBSt; apo D59C mutant) | ligand binding by Trp→D2G FRET (D59A MelBSt) |
| --- | --- | --- | --- | --- | --- | --- | --- | --- |
| OC[C@H]1O[C@H](OCC2O[C@@H](O)[C@H](O)[C@@H](O)[C@@H]2O)[C@H](O)[C@@H](O)[C@H]1O (some centres unmarked) [Melibiose] | 4.66 ± 0.1 | 4.96 ± 0.11 | 2 | 6 |  |  |  |  |
| O=[N+]([O-])c1ccc(OC2OC(CO)C(O)C(O)C2O)cc1 [α-NPG, 4-nitrophenyl-α-D-galactopyranoside] |  |  |  |  | 0.0105 ± 0.00134 | 0.01197 ± 9e-05 | about 4 fold | binds |
